Counter-ions that a name gives are not always drawn.
Assays:
[1] = in vivo; cited from earlier work
[2] = Caco-2 monolayer drug transport (in vitro BBB model); assay type: in vitro ADME; conditions: human
Method: The preparation of the Caco-2 cell monolayer as an in vitro BBB model was performed as follows: Caco-2 cells were seeded at a density of 10.000 cells per well on a Millicell 96-well cell culture plate. The culture medium was replaced every 48 h. The formation of the monolayer was monitored by measuring the transepithelial electrical resistance (TEER) using an epithelial voltohmmeter (Millicell-ERS). After 21 days of culture, the Caco-2 cell monolayers were used for permeability experiments. All TEER values measured immediately before the experiments were above 300 Ω·cm^2, confirming the integrity of the monolayer.
Drug transport experiments were carried out following the previously published protocol. Briefly, after 21 days of culture, the medium was removed, and the cells were washed twice with Hank’s Balanced Salt Solution (HBSS) to eliminate any residual culture medium. Subsequently, the wells were refilled with HBSS and incubated at 37 °C for 30 min. After incubation, the HBSS was removed, and solutions containing the compound were added either to the filter well (apical side) or to the receiver plate (basolateral side), while HBSS without the compound was added to the corresponding opposite side. The final concentration of the compounds was 10^–4 M. The plates were then incubated at 37 °C for 2 h. At the end of the incubation period, the samples from both compartments were collected and analyzed by UV–vis spectroscopy. The apparent permeability coefficient (Papp), expressed in nm·s^–1, was calculated using the following equation: 1 Papp=[VA/(area×time)]×([drug]acceptor/[drug]receptor) where VA is the volume (mL) in the acceptor well, area is the surface area of the membrane (0.11 cm^2 of the well), time is the total transport time (7200 s), and [drug] is drug concentration measured by UV–vis spectroscopy.

[3] = Cell viability assay SH-SY5Y (MTT); assay type: cell-based; conditions: human, SH-SY5Y cells
Method: Briefly, 10.000 BV-2 cells/well in 100 μL of culture medium were seeded into 96-well plates (transparent plate, clear bottom; Costar, Corning Inc.) and incubated overnight at 37 °C in 5% CO2. Stock solutions of the drug were preparate in DMSO, keeping it concentration <1% in the experiments. […] Stock solutions were prepared just before their use. Control wells with DMSO were used to evaluate the possible cytotoxicity of the solvent. After 72 h incubation, CCK-8 (10 μL) was added to each well, and after 3–4 h of incubation at 37 °C, the absorbance values at λ = 450 nm were determined on the Tecan Infinite 200 microplate reader. The cytotoxicity assay for SH-SY5Y was conducted by seeding cells at a density of 40.000 cells/well for 24 h in 96-well plate and incubated overnight. […] The plate was incubated for 24 h. After this time, MTT (10 μL) was added to each well, and after 3–4 h of incubation at 37 °C, the absorbance values at λ = 540 nm were determined on the Tecan Infinite 200 microplate reader.
Data were plotted as % cell viability, normalized vs untreated cells by using GraphPad Prism software version 7.05. Values are expressed as the mean ± SEM of at least three independent experiments. […]

In the case of CC(=O)N(O)CCCCCNC(=O)CCC(=O)N(O)CCCCCNC(=O)CCC(=O)N(O)CCCCCN [DFO, Deferoxamine mesylate], the Plasma half-life [1] is listed as 20 to 30 min, the Papp A→B at 2 h ([2]; apical-to-basolateral, 10^–4 M, 2 h, 37 °C) is listed as 76.1 ×10⁻⁶ cm/s and the Papp B→A at 2 h ([2]; basolateral-to-apical, 10^–4 M, 2 h, 37 °C) is listed as 162 ×10⁻⁶ cm/s. The efflux ratio at 2 h ([2]; read-out: BA/AB permeability ratio) was 2.13 and the viability at 24 h, 100 µM [3] was about 100%.
